Patent publication US7683055B2, “Lanthionine-related compounds for the treatment of inflammatory diseases” (Oklahoma Medical Research Foundation, priority 2006, dated 2010)

Tests used:
[1] = test system: SHSY5Y dopaminergic neuroblastoma cells; test: rotenone toxicity in SHSY5Y cells; format: cell-based; conditions: 30 min pretreatment
Procedure: FIG. 15. (R)-LKE1 protects SHSY5Y dopaminergic neuroblastoma cells against rotenone toxicity. In this experiment SHSY5Y cultures were treated with (R)-LKE1 for 30 min. prior to addition of rotenone, then assayed for viability at various later time points. The percent change in 24 hour cell viability was measured in the presence and absence of (R)-LKE1 at difference rotenone concentrations. “LKE” refers to (R)-LKE1.
For example, the methods and compounds of present invention are expected to by useful for treating Parkinson's disease in an individual. […] In this experiment SHSY5Y cultures were treated with (R)-LKE1 for 30 min. prior to addition of rotenone, then assayed for viability at various later time points.

EOC-20 microglial cells [2] = test: PGE2 production in TNFα+IFNγ-stimulated EOC-20 microglial cells; format: cell-based, mouse; conditions: stimulated by TNFα+IFNγ
Htt+ astroglia = test: LPS-stimulated NO2- production in Htt+ astroglia; format: cell-based, mouse; conditions: LPS serotype 0127:B8
Procedure: Primary astrocytes were cultured from neonatal R6/2 transgenic mouse pups (“Htt+”) which are the standard murine model for Huntington's disease (animals commercially obtained from Jackson Labs) or nontransgenic littermates. For RAW cell studies, RAW264.7 macrophages were obtained commercially from American Type Culture Collection. RAW 264.7 macrophages were grown in DMEM plus 10% FBS and 1% Pen/Strep. Cells were maintained in culture according to published methods. Cells were treated with +/−[…] bacterial lipopolysaccharide serotype 0127:B8 (Sigma Chemical)+/−various concentrations of (R)-LKE1 for 24-48 h. (R)-LKE1 was added 30 minutes prior to LPS challenge. Nitrite was measured in the cell culture medium using the Griess diazotization assay. Cells were lysed and Western blots performed for protein expression or in other experiments for ribonuclease protection assays.

EOC-20 microglial cells [3] = test: LPS-stimulated nitrite production in EOC-20 microglia; format: cell-based, mouse
Procedure: In some embodiments, the compounds of the invention function is a cell-type specific, stimulus-specific, or condition-specific fashion. […] In contrast, when EOC-20 cells or RAW264.7 macrophages were stimulated with bacterial lipopolysaccharide (LPS; E. coli serotype 0127:B8) for 24-48 h and nitrite and cell viability were assessed. LKE inhibited cytokine-induced nitrite accumulation with a similar efficacy in both cell types (see FIGS. 9A & 9B).
Mouse EOC-20 microglia (American Tissue Type Collection, Gaithersville Md. USA) (Hensley et al., 2003; Walker et al., 1995) were grown in DMEM containing 20% L929 fibroblast-supplemented medium. Nitrite production by cytokine stimulated microglia was measured in cell culture medium using the Griess diazotization reaction as previously reported (Hensley et al., 2003; West et al., 2004).

NSC-34 cells [4] = test: NSC-34 viability in cytokine-conditioned EOC-20 microglial medium (tetrazolium reduction); format: cell-based, mouse
Procedure: In the second cytotoxicity paradigm, the inventor has also shown that the compounds and methods of this invention diminish the toxicity of microglia-conditioned medium toward NSC-34 cells. NSC-34 cells were treated with conditioned medium taken from EOC-20 cells that had been stimulated for 24 h with 50 U/mL IFNγ plus […] TNFα. This cytokine-conditioned EOC-20 medium is toxic to NSC-34 cells, whereas the same cytokine mixture added directly to NSC-34 cells is not toxic (data not shown). Medium from unstimulated EOC-20 cells is likewise nontoxic (data not shown). The toxic factor in the cytokine-stimulated EOC-20 cell conditioned medium was not identified. […] The concentration of (R)-LKE1 necessary to achieve half-maximal protective efficacy in this case was less than 1 μM (FIG. 3).
(R)-LKE1 protects NSC-34 motoneuron hybridoma cells from microglial-derived neurotoxic products (FIG. 3). EOC-20 microglia were stimulated with 50 U/mL IFNγ plus 20ng/mL TNFα for 24 hours, and cytokine-conditioned medium (CM) was collected. NSC-34 cells (2 days post-passage) were treated with the indicated concentration of (R)-LKE1 for 2.5 hours after which 50% of the medium was replaced with CM. […] After 48 hours, viability of NSC-34 cultures was assessed by tetrazolium reduction assay using a commercially available kit (Promega Aqueous OneStep®).

NSC-34 cells [5] = test: NSC-34 viability after glutamate and/or Ca2+ exposure; format: cell-based, mouse; conditions: 1 mM L-glutamate, 1 mM CaCl2 or both, four days
Procedure: NSC-34 motor neuron x neuroblastoma cells were treated with 1 mM L-glutamate, 1 mM CaCl2, or both for four days. (R)-LKE1 was added at t=0 and at t=48 hours, at the indicated concentrations. At the end of four days (t=96 hours) cell viability was assayed by measuring tetrazolium reduction rates using a commercially available kit (Promega).

CCOC(=O)[C@@H]1CSCC(C(=O)O)=N1 [(R)-LKE1]
protection from rotenone toxicity [1]: protecting SHSY5Y cells from rotenone toxicity | suppression of PGE2 production (EOC-20 microglial cells [2]): does not to suppress prostaglandin E2 (PGE2) production | NO2- produced in response to LPS (Htt+ astroglia): reduce the amount of NO2^− produced | cytotoxicity (cell viability) (EOC-20 microglial cells [3]; EOC-20 cells or RAW264.7 macrophages, LPS 24-48 h): No cytotoxicity was observed | inhibition of LPS-stimulated nitric oxide production (EOC-20 microglial cells [3]; EOC-20 microglial cells, LPS): inhibited LPS stimulated nitric oxide production | EC50 (NSC-34 cells [4]; Mus musculus, NSC-34, cytokine-conditioned EOC-20 medium, read-out: concentration necessary to achieve half-maximal protective efficacy): < 1000 nM | mitigation of conditioned-medium toxicity (NSC-34 cells [4]; co-treatment with conditioned medium): largely, but not completely mitigated | viability of cells exposed to glutamate and/or Ca2+ (NSC-34 cells [5]): increases the viability
